In PMC4723341, “Ribonuclease H/DNA Polymerase HIV-1 Reverse Transcriptase Dual Inhibitor: Mechanistic Studies on the Allosteric Mode of Action of Isatin-Based Compound RMNC6” (PLoS ONE, 2016):
Values joined by “and” are separate entries in the source; they are usually repeats but may differ in a detail not shown here. Identical values can stand only once. Like-named read-outs stand apart in the source and are kept apart here.

How the values were obtained:
[1] = molecular target: T1, HIV-1 RT-associated RNase H activity, E224A RT (Human immunodeficiency virus type 1 group M subtype B, UniProt P04585, E811A); assay: RNase H activity assay, E224A RT; format: biochemical, HIV-1 group M subtype B; details: for Fold of increase of RNase H IC50 with respect to wt RT: E224A RT
T1 construct: The 1:1 ration between the p66/p51 subunits was also verified; made in house; host or cells: E. coli M15
Protocol: (§1) HIV RT-associated RNase H activity was measured as described in 100 μL reaction volume containing 50 mM Tris-HCl buffer pH 7.8, 6 mM MgCl2, 1 mM dithiothreitol (DTT), 80 mM KCl, 0.25 μM hybrid RNA/DNA 5'-GAUCUGAGCCUGGGAGCU-Fluorescin-3' (HPLC, dry, QC: Mass Check) (available from Metabion) 5'-Dabcyl-AGCTCCCAGGCTCAGATC-3'(HPLC, dry, QC: Mass Check), increasing concentrations of inhibitors, whose dilution were made in water, and different amount of enzymes according to a linear range of dose-response curve: 20 ng of WT RT; 60 ng K103N RT; 37.5 ng V106A RT; 75 ng V108A RT; 5 ng Y181C RT; 50 ng Y188A RT; 30 ng Y188L RT; 100 ng E224A RT; 37.5 ng P225A RT; 20 ng P226A RT; 18 ng F227A RT; 30 ng L228A RT; 30 ng W229A RT; 10 ng M230A RT; 30 ng G231A RT; 62.5 ng N474A RT; 1 μg Y501A RT; 100 ng A502F RT; 37.5 ng A508V RT; 38 ng HIV-1 group O RT. The reaction mixture was incubated for 1 h at 37°C, stopped by addition of EDTA and products were measured with a multilabel counter plate reader Victor 3 (Perkin Elmer model 1420–051) equipped with filters for 490/528 nm (excitation/emission wavelength)

[2] = molecular target: T2, HIV-1 RT-associated RNase H activity, P225A RT (Human immunodeficiency virus type 1 group M subtype B, UniProt P04585, P812A); assay: RNase H activity assay, P225A RT; format: biochemical, HIV-1 group M subtype B; details: for Fold of increase of RNase H IC50 with respect to wt RT: P225A RT
T2 construct: The 1:1 ration between the p66/p51 subunits was also verified; made in house; host or cells: E. coli M15
Protocol: as §1

[3] = molecular target: T3, HIV-1 RT-associated RNase H activity, A502F RT (Human immunodeficiency virus type 1 group M subtype B, UniProt P04585, A1089F); assay: RNase H activity assay, A502F RT; format: biochemical, HIV-1 group M subtype B; details: for Fold of increase of RNase H IC50 with respect to wt RT: A502F RT
T3 construct: The 1:1 ration between the p66/p51 subunits was also verified; made in house; host or cells: E. coli M15
Protocol: as §1

p66/p51 HIV-1 RT = molecular target: T4, p66/p51 HIV-1 RT (Human immunodeficiency virus type 1 group M subtype B, UniProt P04585); assay: Thermal stability by differential scanning fluorimetry; format: binding; details: increasing concentrations of inhibitor
T4 construct: The 1:1 ration between the p66/p51 subunits was also verified; made in house; host or cells: E. coli M15
Protocol: Thermal stability assays were performed according to Nettleship et al.. […] The mixture was heated from 30 to 90°C in increments of 0.2°C. Fluorescence intensity was measured using excitation and emission wavelengths of 483 and 568 nm, respectively. Changes in protein thermal stability (ΔTm) upon inhibitor binding were analyzed by using the LightCycler 480 software. All assays were performed in triplicate.

[4] = molecular target: T5, HIV-1 RT-associated RNase H activity, wt RT (Human immunodeficiency virus type 1 group M subtype B, UniProt P04585); assay: biochemical; parameters: species or system HIV-1 group M subtype B
T5 construct: The 1:1 ration between the p66/p51 subunits was also verified; made in house; host or cells: E. coli M15
Protocol: as §1

[5] = molecular target: T6, HIV-1 RT-associated RNase H activity, Y188A RT (Human immunodeficiency virus type 1 group M subtype B, UniProt P04585, Y775A); assay: RNase H activity assay, Y188A RT; format: biochemical, HIV-1 group M subtype B; details: for Fold of increase of RNase H IC50 with respect to wt RT: Y188A RT
T6 construct: The 1:1 ration between the p66/p51 subunits was also verified; made in house; host or cells: E. coli M15
Protocol: as §1

[6] = molecular target: T7, HIV-1 RT-associated RNase H activity, Y501A RT (Human immunodeficiency virus type 1 group M subtype B, UniProt P04585, Y1088A); assay: biochemical; format: biochemical, HIV-1 group M subtype B
T7 construct: The 1:1 ration between the p66/p51 subunits was also verified; made in house; host or cells: E. coli M15
Protocol: as §1, with “5'-[…]-Fluorescin-3'” for “5'-GAUCUGAGCCUGGGAGCU-Fluorescin-3'”, “5'-Dabcyl-[…]-3'(HPLC,” for “5'-Dabcyl-AGCTCCCAGGCTCAGATC-3'(HPLC,”

[7] = molecular target: T8, HIV-1 RT-associated RNase H activity, N474A RT (Human immunodeficiency virus type 1 group M subtype B, UniProt P04585, N1061A); assay: biochemical; format: biochemical, HIV-1 group M subtype B
T8 construct: The 1:1 ration between the p66/p51 subunits was also verified; made in house; host or cells: E. coli M15
Protocol: as §1, with “5'-[…]-Fluorescin-3'” for “5'-GAUCUGAGCCUGGGAGCU-Fluorescin-3'”, “5'-Dabcyl-[…]-3'(HPLC,” for “5'-Dabcyl-AGCTCCCAGGCTCAGATC-3'(HPLC,”

[8] = molecular target: T9, HIV-1 RT-associated RNase H activity, L228A RT (Human immunodeficiency virus type 1 group M subtype B, UniProt P04585, L815A); assay: RNase H activity assay, L228A RT; format: biochemical, HIV-1 group M subtype B; details: for Fold of increase of RNase H IC50 with respect to wt RT: L228A RT
T9 construct: The 1:1 ration between the p66/p51 subunits was also verified; made in house; host or cells: E. coli M15
Protocol: as §1

[9] = system: HIV-1 RT-associated RNase H activity, G231A RT; assay: RNase H activity assay, G231A RT; format: biochemical, HIV-1 group M subtype B; details: G231A RT
Protocol: as §1

[10] = molecular target: T10, HIV-1 RT-associated RNase H activity, G231A RT (Human immunodeficiency virus type 1 group M subtype B, UniProt P04585, G818A); assay: RNase H activity assay, G231A RT; format: biochemical, HIV-1 group M subtype B
T10 construct: The 1:1 ration between the p66/p51 subunits was also verified; made in house; host or cells: E. coli M15
Protocol: as §1

[11] = molecular target: T11, HIV-1 RT-associated RNase H activity, Y188L RT (Human immunodeficiency virus type 1 group M subtype B, UniProt P04585, Y775L); assay: RNase H activity assay, Y188L RT; format: biochemical, HIV-1 group M subtype B
T11 construct: The 1:1 ration between the p66/p51 subunits was also verified; made in house; host or cells: E. coli M15
Protocol: as §1

SMILES: CC(C)c1ccc(O)c(=O)c(O)c1 [BTP, β-thujaplicinol, reference compound]
- IC50 [1]: 150 ± 30 nM
- Fold of increase of RNase H IC50 with respect to wt RT [1]: 0.8
- IC50 [2]: 130 ± 60 nM
- Fold of increase of RNase H IC50 with respect to wt RT [2]: 0.7
- IC50 [3]: 170 ± 30 nM
- Fold of increase of RNase H IC50 with respect to wt RT [3]: 0.9
- Tm increase of HIV-1 RT (p66/p51 HIV-1 RT; in the presence of Mg2+): < 2.0 °C
- IC50 [4]: 190 ± 30 nM
- IC50 [5]: 190 ± 80 nM
- Fold of increase of RNase H IC50 with respect to wt RT [5]: 1.0
- IC50 [6]: 70 ± 2 nM
- Fold of increase of RNase H IC50 with respect to wt RT ([6]; Y501A RT): 0.4
- IC50 [7]: 920 ± 10 nM
- Fold of increase of RNase H IC50 with respect to wt RT ([7]; N474A RT): 4.8
- IC50 [8]: 100 ± 60 nM
- Fold of increase of RNase H IC50 with respect to wt RT [8]: 0.5
- Fold of increase of RNase H IC50 with respect to wt RT [9]: 1.3
- IC50 [10]: 250 ± 30 nM
- IC50 ([11]; Y188L RT, read-out: IC50 RNase H): 80 ± 50 nM

SMILES: N#Cc1ccc(-c2csc(NN=C3C(=O)Nc4ccccc43)n2)cc1 [RMNC6, (Z)-4-(2-(2-(2-oxoindolin-3-ylidene)hydrazinyl)thiazol-4-yl)benzonitrile]
- IC50 [1]: 7900 ± 1100 nM
- Fold of increase of RNase H IC50 with respect to wt RT [1]: 6 and 6.1
- IC50 [2]: 1700 ± 200 nM
- Fold of increase of RNase H IC50 with respect to wt RT [2]: 1.3
- IC50 [3]: 13000 ± 700 nM
- Fold of increase of RNase H IC50 with respect to wt RT [3]: 10.0
- Effect on RT thermal stability (p66/p51 HIV-1 RT): did not affect significantly
- IC50 [4]: 1300 ± 300 nM
- IC50 [5]: 3300 ± 1500 nM
- Fold of increase of RNase H IC50 with respect to wt RT [5]: 2.5
- IC50 [6]: > 100000 nM
- Fold of increase of RNase H IC50 with respect to wt RT ([6]; Y501A RT): > 77
- Resistance of RNase H function ([6]; Y501A RT): full resistance
- IC50 [7]: > 100000 nM
- Fold of increase of RNase H IC50 with respect to wt RT ([7]; N474A RT): > 77
- Resistance of RNase H function ([7]; N474A RT): full resistance
- IC50 [8]: 1500 ± 100 nM
- Fold of increase of RNase H IC50 with respect to wt RT [8]: 1.1
- Fold of increase of RNase H IC50 with respect to wt RT [9]: 1.3
- IC50 [10]: 1700 ± 400 nM
- IC50 [11]: 1600 ± 500 nM
